Experimental data reported in ChEMBL document CHEMBL1128637, “Enantioselective synthesis of inositols as intermediates for the preparation of deoxy-inositol phosphates from D-galactose” (Bioorg Med Chem Lett, 1995).

Each molecule was assayed against T1, Type 1 InsP3 receptor isoform S2 (Sus scrofa, UniProt P79248) (assay: Binding affinity of compound was determined by its ability to displace specifically bound […] from purified porcine cerebellum membrane).
T1 sequence (P79248 whole entry, canonical isoform): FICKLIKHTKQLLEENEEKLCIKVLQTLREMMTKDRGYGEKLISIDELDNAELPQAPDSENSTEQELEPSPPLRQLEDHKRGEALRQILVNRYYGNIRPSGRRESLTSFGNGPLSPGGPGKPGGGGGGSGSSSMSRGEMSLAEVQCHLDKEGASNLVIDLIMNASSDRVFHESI
Format: tissue-based
In the case of `O=P(O)(O)OC1CC(OP(=O)(O)O)C(OP(=O)(O)O)C(O)C1O` (stereo not drawn), the IC50 is reported as 1500 nM.
`O=P(O)(O)O[C@@H]1[C@H](O)[C@H](O)[C@@H](OP(=O)(O)O)[C@H](OP(=O)(O)O)[C@H]1O` [INS(1,4,5)P3] gave an IC50 of 20 nM.

Each molecule was assayed against T1, Type 1 InsP3 receptor isoform S2 (assay: Binding affinity was determined by its ability to displace specifically bound […] from purified porcine cerebellum membrane.).
Format: tissue-based
For `O=P(OCc1ccccc1)(OCc1ccccc1)OC1CC(OP(=O)(OCc2ccccc2)OCc2ccccc2)C2OC3(CCCCC3)OC2C1OCc1ccccc1` (stereo not drawn), the IC50 was “Not Active”.
`OC1CC(O)C2OC3(CCCCC3)OC2C1O` (stereo not drawn) was tested, and the IC50 was “Not Active”.
With `CO[C@@H]1O[C@@H](CO)[C@@H]2OC3(CCCCC3)O[C@@H]2[C@@H]1O` the IC50 was “Not Active”.
With `O[C@H]1[C@@H](O)[C@H](O)C[C@@H](O)[C@H]1O` the IC50 was “Not Active”.
With `C=C1OC(OC)C(OCc2ccccc2)C2OC3(CCCCC3)OC12` (stereo not drawn) the IC50 was “Not Active”.
For `OC1CC(O)C2OC3(CCCCC3)OC2C1OCc1ccccc1` (stereo not drawn), the IC50 was “Not Active”.
With `COC1OC(CBr)C2OC3(CCCCC3)OC2C1O` (stereo not drawn) the IC50 was “Not Active”.
For `COC1OC(CBr)C2OC3(CCCCC3)OC2C1OCc1ccccc1` (stereo not drawn), the IC50 was “Not Active”.
With `O=C1CC(O)C(OCc2ccccc2)C2OC3(CCCCC3)OC12` (stereo not drawn) the IC50 was “Not Active”.
In the case of `O=P(OCc1ccccc1)(OCc1ccccc1)OC1CC(OP(=O)(OCc2ccccc2)OCc2ccccc2)C(OP(=O)(OCc2ccccc2)OCc2ccccc2)C2OC3(CCCCC3)OC12` (stereo not drawn), the IC50 is reported as “Not Active”.
In the case of `CO[C@@H]1O[C@H](CO)[C@H](O)[C@H](O)[C@H]1O`, the IC50 is reported as “Not Active”.
